Here are results for twelve compounds from US10028960B2, “Pyrimidine compounds as JAK kinase inhibitors” (THERAVANCE BIOPHARMA R&D IP, LLC, priority 2016, dated 2018).

One assay concerns the target JAK1 (Homo sapiens (Human), UniProt P23458). The assay is described as follows: LanthaScreen JAK biochemical assay, JAK1. As for the experimental part: (§1) A panel of four LanthaScreen JAK biochemical assays (JAK1, 2, 3 and Tyk2) were carried in a common kinase reaction buffer (50 mM HEPES, pH 7.5, 0.01% Brij-35, 10 mM MgCl2, and 1 mM EGTA). Recombinant GST-tagged JAK enzymes and a GFP-tagged STAT1 peptide substrate were obtained from Life Technologies.
(In general: Time-resolved FRET reads energy transfer from a long-lived donor to a nearby acceptor.)

The target in a further assay is JAK2 (Homo sapiens (Human), UniProt O60674). Description: LanthaScreen JAK biochemical assay, JAK2. As for the experimental part: as §1
JAK2, sequence (O60674 whole entry): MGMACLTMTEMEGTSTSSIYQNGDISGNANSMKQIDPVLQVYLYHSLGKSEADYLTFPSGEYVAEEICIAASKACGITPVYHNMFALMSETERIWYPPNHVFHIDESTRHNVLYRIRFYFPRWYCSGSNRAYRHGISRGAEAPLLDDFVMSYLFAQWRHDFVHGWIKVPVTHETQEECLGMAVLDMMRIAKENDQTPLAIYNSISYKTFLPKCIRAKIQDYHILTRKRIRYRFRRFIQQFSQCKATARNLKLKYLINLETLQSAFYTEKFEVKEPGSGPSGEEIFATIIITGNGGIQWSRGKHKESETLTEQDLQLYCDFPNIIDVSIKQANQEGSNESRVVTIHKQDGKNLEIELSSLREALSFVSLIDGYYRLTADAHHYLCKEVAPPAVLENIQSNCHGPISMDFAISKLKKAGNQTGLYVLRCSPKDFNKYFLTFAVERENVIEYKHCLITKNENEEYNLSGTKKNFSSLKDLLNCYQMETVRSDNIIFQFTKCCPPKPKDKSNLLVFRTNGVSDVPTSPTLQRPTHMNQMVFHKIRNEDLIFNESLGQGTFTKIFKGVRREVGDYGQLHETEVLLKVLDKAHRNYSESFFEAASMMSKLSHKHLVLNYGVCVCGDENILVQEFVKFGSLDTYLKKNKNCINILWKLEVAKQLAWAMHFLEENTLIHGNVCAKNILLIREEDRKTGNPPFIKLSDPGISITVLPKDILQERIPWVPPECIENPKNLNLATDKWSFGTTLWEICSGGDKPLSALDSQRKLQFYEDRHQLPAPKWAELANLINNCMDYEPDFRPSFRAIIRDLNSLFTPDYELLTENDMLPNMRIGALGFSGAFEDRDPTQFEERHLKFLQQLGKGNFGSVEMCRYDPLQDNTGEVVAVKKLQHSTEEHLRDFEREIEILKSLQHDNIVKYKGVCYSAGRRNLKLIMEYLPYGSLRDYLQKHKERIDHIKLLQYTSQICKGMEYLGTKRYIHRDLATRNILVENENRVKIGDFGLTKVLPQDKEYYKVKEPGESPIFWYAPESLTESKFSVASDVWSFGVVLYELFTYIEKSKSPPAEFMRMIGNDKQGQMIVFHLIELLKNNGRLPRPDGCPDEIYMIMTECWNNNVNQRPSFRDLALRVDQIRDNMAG
For a further assay, the target named is JAK3 (Homo sapiens (Human), UniProt P52333). The assay is described as follows: LanthaScreen JAK biochemical assay, JAK3. As for the experimental part: as §1
JAK3, sequence (P52333 whole entry): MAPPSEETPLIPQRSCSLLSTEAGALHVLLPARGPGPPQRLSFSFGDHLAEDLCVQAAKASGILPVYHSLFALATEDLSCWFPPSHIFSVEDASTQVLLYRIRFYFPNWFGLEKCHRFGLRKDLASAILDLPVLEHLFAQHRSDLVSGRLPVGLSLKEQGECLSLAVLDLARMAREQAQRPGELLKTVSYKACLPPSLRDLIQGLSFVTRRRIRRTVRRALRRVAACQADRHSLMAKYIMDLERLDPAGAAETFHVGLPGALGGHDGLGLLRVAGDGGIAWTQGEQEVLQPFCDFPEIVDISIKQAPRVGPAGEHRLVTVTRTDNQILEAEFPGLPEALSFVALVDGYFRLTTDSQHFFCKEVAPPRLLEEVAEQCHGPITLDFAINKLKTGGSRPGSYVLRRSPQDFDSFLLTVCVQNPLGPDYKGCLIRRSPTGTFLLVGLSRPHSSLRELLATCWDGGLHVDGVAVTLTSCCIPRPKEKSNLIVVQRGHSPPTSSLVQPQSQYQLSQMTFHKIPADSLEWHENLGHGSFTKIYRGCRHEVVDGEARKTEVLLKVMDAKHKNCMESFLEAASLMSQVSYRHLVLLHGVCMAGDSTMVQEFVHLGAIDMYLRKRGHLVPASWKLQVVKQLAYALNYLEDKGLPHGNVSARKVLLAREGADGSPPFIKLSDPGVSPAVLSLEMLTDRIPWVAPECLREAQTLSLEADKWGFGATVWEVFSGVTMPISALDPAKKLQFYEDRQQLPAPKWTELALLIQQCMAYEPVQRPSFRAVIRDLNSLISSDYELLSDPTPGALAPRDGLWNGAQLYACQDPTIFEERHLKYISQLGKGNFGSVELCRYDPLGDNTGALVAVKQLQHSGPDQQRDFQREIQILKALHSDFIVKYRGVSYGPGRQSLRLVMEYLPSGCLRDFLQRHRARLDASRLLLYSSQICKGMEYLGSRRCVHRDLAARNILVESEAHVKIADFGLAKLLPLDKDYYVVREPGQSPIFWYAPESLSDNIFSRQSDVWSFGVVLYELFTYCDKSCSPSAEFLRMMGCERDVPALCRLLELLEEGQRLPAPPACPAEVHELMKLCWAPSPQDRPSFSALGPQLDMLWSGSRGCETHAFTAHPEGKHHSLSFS
A further assay deals with Tyk2 (Homo sapiens (Human), UniProt P29597). Description: LanthaScreen JAK biochemical assay, Tyk2. As for the experimental part:
as §1

In assay [1] the test system is IL-13 induced STAT6 phosphorylation in HT-29 human colorectal adenocarcinoma cells. The assay is described as follows: Cellular JAK potency assay: inhibition of IL-13 induced STAT6 phosphorylation. Type of assay: cell-based. The conditions noted are these: IL-13 induced STAT6 phosphorylation, HT-29 cells. As for the experimental part: The potency of test compounds for inhibition of the JAK-dependent cytokine interleuken-13 (IL-13) was assessed by measuring IL-13 (IL-13, R&D Systems) induced STAT6 phosphorylation in HT-29 human colorectal adenocarcinoma cells (ATCC).
The anti-STAT6 antibody (Cell Signaling Technologies) was conjugated to AlphaScreen acceptor beads (Perkin Elmer), while the anti-pSTAT6 (pTyr641) antibody (Cell Signaling Technologies) was biotinylated using EZ-Link Sulfo-NHS-Biotin (Thermo Scientific).
HT-29 cells were grown at 37° C. in a 5% CO2 humidified incubator in McCoy's 5a Modified medium (ATCC) supplemented with 10% FBS (Hyclone), 100 U/mL penicillin, 100 μg/mL streptomycin (Life Technologies), and 2 mM GlutaMAX (Life Technologies). On day 1 of the assay, cells were seeded at a 7,500 cells/well density in white poly-D-lysine-coated 384-well plates (Corning) with 25 μL medium, and were allowed to adhere overnight in the incubator. On day 2 of the assay, the medium was removed and replaced with 12 μL of assay buffer (Hank's Balanced Salt Solution/HBSS, 25 mM HEPES, and 1 mg/ml bovine serum albumin/BSA) containing dose-responses of test compounds. Compounds were serially diluted in DMSO and then diluted another 1000-fold in media to bring the final DMSO concentration to 0.1%. Cells were incubated with test compounds at 37° C. for 1 h, and followed by the addition of 12 μL of pre-warmed IL-13 (12 ng/ml in assay buffer) for stimulation. After incubating at 37° C. for 30 min, the assay buffer (containing compound and IL-13) was removed, and 10 μL of cell lysis buffer (25 mM HEPES, 0.1% SDS, 1% NP-40, 5 mM MgCl2, 1.3 mM EDTA, 1 mM EGTA, and supplement with Complete Ultra mini protease inhibitors and PhosSTOP from Roche Diagnostics). The plates were shaken at ambient temperature for 30 min before the addition of detection reagents. A mixture of biotin-anti-pSTAT6 and anti-STAT6 conjugated acceptor beads was added first and incubated at ambient temperature for 2 h, followed by the addition of streptavidin conjugated donor beads (Perkin Elmer). After a minimum of 2 h incubation, the assay plates were read on the EnVision plate reader.
Results were expressed as the negative logarithm of the IC50 value, pIC50.

JAK1, sequence (P23458 whole entry): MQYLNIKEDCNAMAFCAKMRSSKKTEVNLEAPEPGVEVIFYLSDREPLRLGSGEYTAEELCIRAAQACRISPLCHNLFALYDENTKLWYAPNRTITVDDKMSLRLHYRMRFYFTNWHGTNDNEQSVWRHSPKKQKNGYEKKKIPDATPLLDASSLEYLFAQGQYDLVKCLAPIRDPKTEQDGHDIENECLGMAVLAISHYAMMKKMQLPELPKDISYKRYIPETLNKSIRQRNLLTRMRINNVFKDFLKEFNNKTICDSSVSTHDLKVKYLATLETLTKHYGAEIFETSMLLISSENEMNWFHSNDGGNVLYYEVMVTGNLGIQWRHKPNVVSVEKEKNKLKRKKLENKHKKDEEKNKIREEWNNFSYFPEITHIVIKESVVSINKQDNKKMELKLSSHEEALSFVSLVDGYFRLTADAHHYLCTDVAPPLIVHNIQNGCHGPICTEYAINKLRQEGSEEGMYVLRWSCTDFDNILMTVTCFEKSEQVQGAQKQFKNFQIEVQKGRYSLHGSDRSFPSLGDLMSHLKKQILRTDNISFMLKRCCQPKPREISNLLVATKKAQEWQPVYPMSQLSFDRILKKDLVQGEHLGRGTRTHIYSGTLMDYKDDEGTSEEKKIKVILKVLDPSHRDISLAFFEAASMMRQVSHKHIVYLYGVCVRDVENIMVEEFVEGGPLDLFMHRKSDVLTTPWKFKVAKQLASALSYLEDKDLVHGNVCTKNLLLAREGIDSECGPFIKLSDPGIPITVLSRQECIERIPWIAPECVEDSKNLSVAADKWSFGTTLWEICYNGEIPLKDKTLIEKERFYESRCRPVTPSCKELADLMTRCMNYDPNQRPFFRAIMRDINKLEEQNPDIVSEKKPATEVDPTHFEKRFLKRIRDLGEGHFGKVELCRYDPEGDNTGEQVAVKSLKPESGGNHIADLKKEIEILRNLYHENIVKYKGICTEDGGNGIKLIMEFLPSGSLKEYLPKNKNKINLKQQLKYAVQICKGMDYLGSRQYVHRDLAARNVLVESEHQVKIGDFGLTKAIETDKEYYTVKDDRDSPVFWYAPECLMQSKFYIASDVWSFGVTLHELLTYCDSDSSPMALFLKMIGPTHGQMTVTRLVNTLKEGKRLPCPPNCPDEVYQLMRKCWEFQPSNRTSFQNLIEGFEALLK
Tyk2, sequence (P29597 whole entry): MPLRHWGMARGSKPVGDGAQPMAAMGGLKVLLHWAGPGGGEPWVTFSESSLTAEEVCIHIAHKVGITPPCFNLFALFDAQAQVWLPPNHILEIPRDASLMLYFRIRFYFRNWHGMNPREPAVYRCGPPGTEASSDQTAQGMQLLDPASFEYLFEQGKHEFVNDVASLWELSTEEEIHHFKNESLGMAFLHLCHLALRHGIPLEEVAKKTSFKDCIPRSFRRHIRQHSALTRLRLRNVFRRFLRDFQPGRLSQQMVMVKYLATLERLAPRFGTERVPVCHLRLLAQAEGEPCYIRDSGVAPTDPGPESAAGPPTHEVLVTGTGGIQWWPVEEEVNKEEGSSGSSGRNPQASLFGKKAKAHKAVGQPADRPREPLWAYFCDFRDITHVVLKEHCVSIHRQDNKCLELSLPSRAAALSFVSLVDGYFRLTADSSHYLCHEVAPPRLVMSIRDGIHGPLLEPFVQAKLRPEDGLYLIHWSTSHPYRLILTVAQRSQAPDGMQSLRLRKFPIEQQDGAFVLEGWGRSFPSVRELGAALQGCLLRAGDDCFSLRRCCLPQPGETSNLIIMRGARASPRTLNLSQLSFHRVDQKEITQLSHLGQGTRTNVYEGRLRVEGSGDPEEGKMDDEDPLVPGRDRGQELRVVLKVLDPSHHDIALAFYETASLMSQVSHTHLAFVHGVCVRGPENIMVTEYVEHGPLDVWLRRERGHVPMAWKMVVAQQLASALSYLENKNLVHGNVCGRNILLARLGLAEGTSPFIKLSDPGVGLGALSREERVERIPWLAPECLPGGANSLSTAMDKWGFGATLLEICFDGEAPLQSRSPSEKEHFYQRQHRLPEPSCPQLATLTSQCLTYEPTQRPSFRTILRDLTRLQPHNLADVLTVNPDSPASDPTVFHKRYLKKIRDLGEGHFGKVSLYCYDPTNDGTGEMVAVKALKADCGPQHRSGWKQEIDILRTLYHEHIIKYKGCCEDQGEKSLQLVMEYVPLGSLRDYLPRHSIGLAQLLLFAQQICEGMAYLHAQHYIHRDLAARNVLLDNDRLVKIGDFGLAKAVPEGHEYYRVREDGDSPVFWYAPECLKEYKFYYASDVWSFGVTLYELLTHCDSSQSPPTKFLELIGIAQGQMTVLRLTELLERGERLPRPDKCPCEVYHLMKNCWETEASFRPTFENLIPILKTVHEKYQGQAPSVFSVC

Regarding `COc1cc(Nc2cc(CO)[nH]n2)nc(N(C)[C@@H]2C[C@H]3CCC[C@@H](C2)N3S(=O)(=O)CCC#N)n1` [Example 1-12, 3-(((1R,3s,5S)-3-((4-((5-(hydroxymethyl)-1H-pyrazol-3-yl)amino)-6-methoxypyrimidin-2-yl)(methyl)amino)-9-azabicyclo[3.3.1]nonan-9-yl)-sulfonyl)propanenitrile], the “JAK 1 (pKi)” value on JAK1 is “B (B represents a pKi value between 9 and 10 (Ki between 1 nM and 0.1 nM))”. In addition, the “JAK 2 (pKi)” value at JAK2 was “B (B represents a pKi value between 9 and 10 (Ki between 1 nM and 0.1 nM))”. Besides, the “JAK 3 (pKi)” value at JAK3 is “C (C represents a pKi value between 8 and 9 (Ki between 10 nM and 1 nM))”. For the same compound, at Tyk2, the “Tyk 2 (pKi)” value is “B (B represents a pKi value between 9 and 10 (Ki between 1 nM and 0.1 nM))”.
Take `COc1cc(Nc2cc(CO)[nH]n2)nc(N[C@@H]2C[C@H]3CCC[C@@H](C2)N3Cc2cccnc2)n1` [Example 2-4, (3-((6-methoxy-2-(((1R,3s,5S)-9-(pyridin-3-ylmethyl)-9-azabicyclo[3.3.1]nonan-3-yl)amino)pyrimidin-4-yl)amino)-1H-pyrazol-5-yl)methanol]: the “JAK 1 (pKi)” value at JAK1 was “B (B represents a pKi value between 9 and 10 (Ki between 1 nM and 0.1 nM))”. In assay [1], the “HT-29 (pIC50)” value was “B (B represents a pIC50 value between 6.7 and 7.5 (IC50 between 200 nM and 32 nM))”.
For the compound `COc1cc(Nc2cc(CO)[nH]n2)nc(N(C)[C@@H]2C[C@H]3CCC[C@@H](C2)N3CCC#N)n1` [Example 2-5, 3-((1R,3s,5S)-3-((4-((5-(hydroxymethyl)-1H-pyrazol-3-yl)amino)-6-methoxypyrimidin-2-yl)(methyl)amino)-9-azabicyclo[3.3.1]nonan-9-yl)propanenitrile], at JAK1, the “JAK 1 (pKi)” value is “B (B represents a pKi value between 9 and 10 (Ki between 1 nM and 0.1 nM))”. For the same compound, the “JAK 2 (pKi)” value on JAK2 was “B (B represents a pKi value between 9 and 10 (Ki between 1 nM and 0.1 nM))”. Further, the “JAK 3 (pKi)” value at JAK3 is “D (D represents a pKi value between 7.5 and 8 (Ki between 31.6 nM and 10 nM))”. Further, the “Tyk 2 (pKi)” value at Tyk2 is “C (C represents a pKi value between 8 and 9 (Ki between 10 nM and 1 nM))”.
With `COc1cc(Nc2cc(CO)[nH]n2)nc(N(C)[C@@H]2C[C@H]3CCC[C@@H](C2)N3Cc2ccncc2)n1` [Example 2-7, (3-((6-methoxy-2-(methyl((1R,3s,5S)-9-(pyridin-4-ylmethyl)-9-azabicyclo[3.3.1]nonan-3-yl)amino)pyrimidin-4-yl)amino)-1H-pyrazol-5-yl)methanol], at JAK1, the “JAK 1 (pKi)” value was “B (B represents a pKi value between 9 and 10 (Ki between 1 nM and 0.1 nM))”. Further, the “HT-29 (pIC50)” value in assay [1] was “B (B represents a pIC50 value between 6.7 and 7.5 (IC50 between 200 nM and 32 nM))”.
Take `COc1cc(Nc2cc(CO)[nH]n2)nc(N(C)[C@@H]2C[C@H]3CCC[C@@H](C2)N3Cc2ccnc(C#N)c2)n1` [Example 2-8, 4-(((1R,3s,5S)-3-((4-((5-(hydroxymethyl)-1H-pyrazol-3-yl)amino)-6-methoxypyrimidin-2-yl)(methyl)amino)-9-azabicyclo[3.3.1]nonan-9-yl)methyl)picolinonitrile]: at JAK1, the “JAK 1 (pKi)” value is “B (B represents a pKi value between 9 and 10 (Ki between 1 nM and 0.1 nM))”. The “HT-29 (pIC50)” value in assay [1] was “B (B represents a pIC50 value between 6.7 and 7.5 (IC50 between 200 nM and 32 nM))”.
Take `COc1cc(Nc2cc(CO)[nH]n2)nc(N(C)[C@@H]2C[C@H]3CCC[C@@H](C2)N3C(=O)OCC(C)C)n1` [Example 3-2, isobutyl (1R,3s,5S)-3-((4-((5-(hydroxymethyl)-1H-pyrazol-3-yl)amino)-6-methoxypyrimidin-2-yl)(methyl)amino)-9-azabicyclo[3.3.1]nonane-9-carboxylate]: the “JAK 1 (pKi)” value at JAK1 was “B (B represents a pKi value between 9 and 10 (Ki between 1 nM and 0.1 nM))”. For the same compound, the “JAK 2 (pKi)” value at JAK2 was “B (B represents a pKi value between 9 and 10 (Ki between 1 nM and 0.1 nM))”. Moreover, the “Tyk 2 (pKi)” value on Tyk2 was “B (B represents a pKi value between 9 and 10 (Ki between 1 nM and 0.1 nM))”.
Regarding `COC(=O)N1[C@@H]2CCC[C@H]1C[C@H](N(C)c1nc(Nc3cc(CO)[nH]n3)cc(OC)n1)C2` [Example 3-3, methyl (1R,3s,5S)-3-((4-((5-(hydroxymethyl)-1H-pyrazol-3-yl)amino)-6-methoxypyrimidin-2-yl)(methyl)amino)-9-azabicyclo[3.3.1]nonane-9-carboxylate], at JAK1, the “JAK 1 (pKi)” value was “B (B represents a pKi value between 9 and 10 (Ki between 1 nM and 0.1 nM))”. For the same compound, on JAK2, the “JAK 2 (pKi)” value was “B (B represents a pKi value between 9 and 10 (Ki between 1 nM and 0.1 nM))”. Further, on Tyk2, the “Tyk 2 (pKi)” value is “C (C represents a pKi value between 8 and 9 (Ki between 10 nM and 1 nM))”.
Regarding `COc1cc(Nc2cc(CO)[nH]n2)nc(N(C)[C@@H]2C[C@H]3CCC[C@@H](C2)N3C(=O)N2CCOCC2)n1` [Example 3-4, ((1R,3s,5S)-3-((4-((5-(hydroxymethyl)-1H-pyrazol-3-yl)amino)-6-methoxy-pyrimidin-2-yl)(methyl)amino)-9-azabicyclo[3.3.1]nonan-9-yl)(morpholino)methanone], at JAK1, the “JAK 1 (pKi)” value is “B (B represents a pKi value between 9 and 10 (Ki between 1 nM and 0.1 nM))”. For the same compound, the “JAK 2 (pKi)” value at JAK2 was “B (B represents a pKi value between 9 and 10 (Ki between 1 nM and 0.1 nM))”. In addition, the “Tyk 2 (pKi)” value on Tyk2 is “B (B represents a pKi value between 9 and 10 (Ki between 1 nM and 0.1 nM))”.
Consider `COc1cc(Nc2cc(CO)[nH]n2)nc(N(C)[C@@H]2C[C@H]3CCC[C@@H](C2)N3C(=O)CC2CC2)n1` [Example 3-5, 2-cyclopropyl-1-((1R,3s,5S)-3-((4-((5-(hydroxymethyl)-1H-pyrazol-3-yl)amino)-6-methoxypyrimidin-2-yl)(methyl)amino)-9-azabicyclo[3.3.1]nonan-9-yl)ethan-1-one], for which the “JAK 1 (pKi)” value on JAK1 was “B (B represents a pKi value between 9 and 10 (Ki between 1 nM and 0.1 nM))”. In addition, the “JAK 2 (pKi)” value at JAK2 is “B (B represents a pKi value between 9 and 10 (Ki between 1 nM and 0.1 nM))”. The “Tyk 2 (pKi)” value at Tyk2 is “B (B represents a pKi value between 9 and 10 (Ki between 1 nM and 0.1 nM))”.
On to `COc1cc(Nc2cc(CO)[nH]n2)nc(N(C)[C@@H]2C[C@H]3CCC[C@@H](C2)N3C(C)=O)n1` [Example 3-6], for which, at JAK1, the “JAK 1 (pKi)” value was “B (B represents a pKi value between 9 and 10 (Ki between 1 nM and 0.1 nM))”. Moreover, the “JAK 2 (pKi)” value at JAK2 is “B (B represents a pKi value between 9 and 10 (Ki between 1 nM and 0.1 nM))”. In addition, the “Tyk 2 (pKi)” value on Tyk2 was “C (C represents a pKi value between 8 and 9 (Ki between 10 nM and 1 nM))”.
In the case of `COc1cc(Nc2cc(CO)[nH]n2)nc(N(C)[C@@H]2C[C@H]3CCC[C@@H](C2)N3C(=O)C2CCCC2)n1` [Example 3-7, cyclopentyl((1R,3s,5S)-3-((4-((5-(hydroxymethyl)-1H-pyrazol-3-yl)amino)-6-methoxypyrimidin-2-yl)(methyl)amino)-9-azabicyclo[3.3.1]nonan-9-yl)methanone], the “JAK 1 (pKi)” value on JAK1 was “B (B represents a pKi value between 9 and 10 (Ki between 1 nM and 0.1 nM))”. Further, at JAK2, the “JAK 2 (pKi)” value was “B (B represents a pKi value between 9 and 10 (Ki between 1 nM and 0.1 nM))”. For the same compound, the “Tyk 2 (pKi)” value at Tyk2 was “B (B represents a pKi value between 9 and 10 (Ki between 1 nM and 0.1 nM))”.
Turning to `COc1cc(Nc2cc(CO)[nH]n2)nc(N(C)[C@@H]2C[C@H]3CCC[C@@H](C2)N3C(=O)C2CCC2)n1` [Example 3-8, cyclobutyl((1R,3s,5S)-3-((4-((5-(hydroxymethyl)-1H-pyrazol-3-yl)amino)-6-methoxypyrimidin-2-yl)(methyl)amino)-9-azabicyclo[3.3.1]nonan-9-yl)methanone], on JAK1, the “JAK 1 (pKi)” value is “B (B represents a pKi value between 9 and 10 (Ki between 1 nM and 0.1 nM))”. For the same compound, the “JAK 2 (pKi)” value on JAK2 is “B (B represents a pKi value between 9 and 10 (Ki between 1 nM and 0.1 nM))”. Moreover, at Tyk2, the “Tyk 2 (pKi)” value was “B (B represents a pKi value between 9 and 10 (Ki between 1 nM and 0.1 nM))”.
